ChEMBL document CHEMBL2390956, “Design, synthesis and evaluation of flavonoid derivatives as potential multifunctional acetylcholinesterase inhibitors against Alzheimer's disease” (Bioorg Med Chem Lett, 2013)
Calls of active or inactive are those of the source. The rule behind the calls is not given here.

Assays:
[1] = target: Amyloid-beta precursor protein (Homo sapiens) (UniProt P05067); test: Inhibition of amyloid beta (1 to 42) (unknown origin) aggregation at 20 uM by thioflavin T based fluorometric assay
[2] = target: Cholinesterase (Equus caballus, UniProt P81908)
Description: Inhibition of equine serum BuChE using S-butyrylthiocholine iodide as substrate incubated for 6 mins prior to substrate addition measured after 60 to 180 secs by Ellman's method

[3] = target: Acetylcholinesterase (Electrophorus electricus, UniProt O42275)
Description: Inhibition of electric eel AChE using acetylthiocholine iodide as substrate incubated for 6 mins prior to substrate addition measured after 60 to 180 secs by Ellman's method

[4] = target: Acetylcholinesterase (Electrophorus electricus) (UniProt O42275); test: Ratio of tacrine IC50 to compound IC50 for electric eel AChE
[5] = target: Acetylcholinesterase (Electrophorus electricus) (UniProt O42275); test: Ratio of galanthamine IC50 to compound IC50 for electric eel AChE
[6] = Metal chelating activity of the compound assessed as formation of copper complex at 35 uM by UV-vis spectrometry; format: functional
[7] = Metal chelating activity of the compound assessed as formation of iron complex at 35 uM by UV-vis spectrometry; format: functional
[8] = target: Acetylcholinesterase (Homo sapiens) (UniProt P22303); test: Mixed inhibition of AChE (unknown origin) using ATC as substrate assessed as acetylcholine hydrolysis incubated 15 mins prior to substrate addition by Lineweaver-Burk plot analysis
Chain of Acetylcholinesterase (Homo sapiens) (P22303 whole entry): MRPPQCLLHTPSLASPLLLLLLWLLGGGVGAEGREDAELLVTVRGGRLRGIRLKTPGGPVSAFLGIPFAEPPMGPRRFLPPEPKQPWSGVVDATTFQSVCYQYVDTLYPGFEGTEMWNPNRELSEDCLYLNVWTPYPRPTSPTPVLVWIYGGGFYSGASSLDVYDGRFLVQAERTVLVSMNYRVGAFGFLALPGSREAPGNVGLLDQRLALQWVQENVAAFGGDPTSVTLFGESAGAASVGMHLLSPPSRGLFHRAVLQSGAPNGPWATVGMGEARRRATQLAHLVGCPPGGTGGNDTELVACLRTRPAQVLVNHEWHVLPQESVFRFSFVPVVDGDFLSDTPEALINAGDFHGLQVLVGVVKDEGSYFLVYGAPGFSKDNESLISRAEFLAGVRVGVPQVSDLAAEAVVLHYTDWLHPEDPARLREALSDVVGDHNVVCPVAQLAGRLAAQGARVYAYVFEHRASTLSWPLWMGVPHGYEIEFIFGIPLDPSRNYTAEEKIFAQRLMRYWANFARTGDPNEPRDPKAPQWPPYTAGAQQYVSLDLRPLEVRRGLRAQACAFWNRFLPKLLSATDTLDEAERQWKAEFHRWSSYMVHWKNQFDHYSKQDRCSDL

Chain of Acetylcholinesterase (O42275 whole entry): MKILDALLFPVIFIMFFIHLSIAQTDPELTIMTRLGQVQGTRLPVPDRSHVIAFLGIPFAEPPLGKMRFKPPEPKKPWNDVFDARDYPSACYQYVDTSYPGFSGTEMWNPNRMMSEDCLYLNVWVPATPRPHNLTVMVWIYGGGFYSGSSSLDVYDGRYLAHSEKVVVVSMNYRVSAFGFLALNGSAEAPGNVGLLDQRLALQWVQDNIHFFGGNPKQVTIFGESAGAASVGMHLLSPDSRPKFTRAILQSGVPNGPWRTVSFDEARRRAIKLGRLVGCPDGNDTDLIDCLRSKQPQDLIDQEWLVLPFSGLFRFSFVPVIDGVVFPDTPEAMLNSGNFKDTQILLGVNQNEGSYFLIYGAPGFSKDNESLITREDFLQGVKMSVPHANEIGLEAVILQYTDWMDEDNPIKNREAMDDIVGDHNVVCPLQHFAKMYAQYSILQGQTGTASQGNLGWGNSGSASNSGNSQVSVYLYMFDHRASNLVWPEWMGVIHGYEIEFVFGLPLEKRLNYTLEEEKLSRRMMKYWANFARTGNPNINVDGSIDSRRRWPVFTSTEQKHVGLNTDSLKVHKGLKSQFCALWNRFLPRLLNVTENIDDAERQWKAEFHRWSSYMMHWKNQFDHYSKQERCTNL
Chain of Amyloid-beta precursor protein (Homo sapiens) (P05067 whole entry): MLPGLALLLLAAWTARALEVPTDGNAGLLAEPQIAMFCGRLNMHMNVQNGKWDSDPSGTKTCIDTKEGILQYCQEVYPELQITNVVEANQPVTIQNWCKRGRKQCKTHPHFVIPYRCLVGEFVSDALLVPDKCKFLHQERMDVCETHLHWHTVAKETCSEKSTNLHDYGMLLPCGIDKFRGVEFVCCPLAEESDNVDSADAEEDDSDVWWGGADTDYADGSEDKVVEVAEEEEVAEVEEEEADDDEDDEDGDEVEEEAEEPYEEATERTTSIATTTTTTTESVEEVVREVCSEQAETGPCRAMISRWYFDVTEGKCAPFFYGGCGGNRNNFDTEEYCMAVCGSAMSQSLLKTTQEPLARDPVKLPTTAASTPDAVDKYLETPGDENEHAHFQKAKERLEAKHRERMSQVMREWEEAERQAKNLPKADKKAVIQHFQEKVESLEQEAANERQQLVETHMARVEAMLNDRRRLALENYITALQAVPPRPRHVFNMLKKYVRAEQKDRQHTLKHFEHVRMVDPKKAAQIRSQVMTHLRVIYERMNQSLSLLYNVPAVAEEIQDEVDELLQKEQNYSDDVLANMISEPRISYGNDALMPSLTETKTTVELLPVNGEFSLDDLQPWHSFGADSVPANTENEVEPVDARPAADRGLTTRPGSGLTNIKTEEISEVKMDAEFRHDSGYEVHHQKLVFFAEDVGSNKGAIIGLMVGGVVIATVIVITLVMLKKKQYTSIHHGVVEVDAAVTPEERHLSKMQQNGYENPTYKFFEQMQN
Chain of Cholinesterase (P81908 whole entry): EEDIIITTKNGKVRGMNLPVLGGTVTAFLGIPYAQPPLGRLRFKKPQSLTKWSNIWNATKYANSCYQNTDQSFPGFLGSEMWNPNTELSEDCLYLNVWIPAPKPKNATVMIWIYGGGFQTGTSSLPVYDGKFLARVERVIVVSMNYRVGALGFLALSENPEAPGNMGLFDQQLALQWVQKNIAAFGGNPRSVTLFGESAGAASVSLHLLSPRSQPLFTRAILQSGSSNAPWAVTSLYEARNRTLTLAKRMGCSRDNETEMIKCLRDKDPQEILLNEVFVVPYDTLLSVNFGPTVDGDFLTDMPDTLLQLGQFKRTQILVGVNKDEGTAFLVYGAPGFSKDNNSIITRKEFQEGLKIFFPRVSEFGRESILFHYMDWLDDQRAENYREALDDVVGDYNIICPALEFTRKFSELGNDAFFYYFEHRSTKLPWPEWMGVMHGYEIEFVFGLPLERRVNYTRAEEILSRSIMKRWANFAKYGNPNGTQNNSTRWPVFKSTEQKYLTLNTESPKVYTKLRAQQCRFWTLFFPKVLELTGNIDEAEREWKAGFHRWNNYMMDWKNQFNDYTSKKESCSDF
Chain of Acetylcholinesterase (Electrophorus electricus) (O42275 24-633 limits assumed): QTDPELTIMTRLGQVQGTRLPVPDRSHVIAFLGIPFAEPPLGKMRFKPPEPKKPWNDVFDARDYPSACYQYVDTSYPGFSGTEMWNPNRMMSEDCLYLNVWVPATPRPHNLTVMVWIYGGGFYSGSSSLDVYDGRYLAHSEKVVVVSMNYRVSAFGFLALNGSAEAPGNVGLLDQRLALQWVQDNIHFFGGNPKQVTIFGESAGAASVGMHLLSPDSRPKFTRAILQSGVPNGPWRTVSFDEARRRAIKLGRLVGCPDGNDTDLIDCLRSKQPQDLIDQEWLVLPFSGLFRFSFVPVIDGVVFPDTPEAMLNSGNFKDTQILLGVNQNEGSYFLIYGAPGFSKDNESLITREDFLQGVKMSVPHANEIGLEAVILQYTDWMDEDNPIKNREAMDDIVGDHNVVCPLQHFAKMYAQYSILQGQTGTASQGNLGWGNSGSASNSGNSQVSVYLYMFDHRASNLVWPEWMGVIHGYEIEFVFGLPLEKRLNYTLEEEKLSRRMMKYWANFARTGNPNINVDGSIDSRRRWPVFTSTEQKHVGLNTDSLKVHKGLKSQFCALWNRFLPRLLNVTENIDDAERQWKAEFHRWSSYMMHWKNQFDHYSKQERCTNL

Row | SMILES | inhibition [1] [%] | IC50 [2] [nM] | IC50 [3] [nM] | Ratio IC50 [4] | Ratio IC50 [5] | Activity [6] | Activity [7] | inhibition [8]
1 | Cc1c(OCCCN2CCCCC2C)ccc2c(=O)cc(-c3ccccc3)oc12 (stereo unspecified) | 41.7 | 5840 | 590 |  |  |  |  | 
2 | Cc1c(OCCN2CCC(O)CC2)ccc2c(=O)cc(-c3ccccc3)oc12 | 26.9 | 3210 | 1830 |  |  |  |  | 
3 | Cc1c(OCCN2CCCCC2C)ccc2c(=O)cc(-c3ccccc3)oc12 (stereo unspecified) | 30.5 | > 100000 | 2100 |  |  |  |  | 
4 | Cc1c(OCCCCCN2CCCCC2C)ccc2c(=O)cc(-c3ccccc3)oc12 (stereo unspecified) | 36.7 | 2770 | 216 |  |  |  |  | 
5 | Cc1c(OCCCCCCN2CCCCC2C)ccc2c(=O)cc(-c3ccccc3)oc12 (stereo unspecified) | 43.2 | 3740 | 1890 |  |  |  |  | 
6 | Cc1c(OCCCCCCN2CCCC2)ccc2c(=O)cc(-c3ccccc3)oc12 | 38.1 | 3280 | 764 |  |  |  |  | 
7 | COC(=O)[C@@H]1CCCN1CCCCOc1ccc2c(=O)cc(-c3ccccc3)oc2c1C |  | 3820 | 25300 |  |  |  |  | 
8 | Cc1c(OCCCCCN2CCC(O)CC2)ccc2c(=O)cc(-c3ccccc3)oc12 | 37.4 | 4850 | 604 |  |  |  |  | 
9 | Cc1c(OCCCCCN2CCCCC2)ccc2c(=O)cc(-c3ccccc3)oc12 | 41.7 | 1410 | 329 |  |  |  |  | 
10 | CCN(CC)CCCCCOc1ccc2c(=O)cc(-c3ccccc3)oc2c1C | 40.9 | > 100000 | 264 |  |  |  |  | 
11 | Cc1c(O)ccc2c(=O)cc(-c3ccccc3)oc12 |  | > 100000 | 87100 |  |  |  |  | 
12 | Cc1c(OCCCCCN2CCOCC2)ccc2c(=O)cc(-c3ccccc3)oc12 | 24.6 | > 100000 | 8630 |  |  |  |  | 
13 | Cc1c(OCCCCCCN2CCC(O)CC2)ccc2c(=O)cc(-c3ccccc3)oc12 | 39 | 3930 | 3150 |  |  |  |  | 
14 | Cc1c(OCCCCN2CCCC2)ccc2c(=O)cc(-c3ccccc3)oc12 | 21.8 | 5700 | 238 |  |  |  |  | 
15 | Cc1c(OCCCCN2CCOCC2)ccc2c(=O)cc(-c3ccccc3)oc12 | 20.4 | > 100000 | 2880 |  |  |  |  | 
16 | Cc1c(OCCCCN2CCC(O)CC2)ccc2c(=O)cc(-c3ccccc3)oc12 | 22.1 | > 100000 | 607 |  |  |  |  | 
17 | COC(=O)[C@@H]1CCCN1CCCCCOc1ccc2c(=O)cc(-c3ccccc3)oc2c1C |  | 3930 | 19600 |  |  |  |  | 
18 | Cc1c(OCCCCN2CCCCC2)ccc2c(=O)cc(-c3ccccc3)oc12 | 37.5 | > 100000 | 234 |  |  |  |  | 
19 | Cc1c(OCCCCCN2CCCC2)ccc2c(=O)cc(-c3ccccc3)oc12 | 39.3 | 1910 | 243 |  |  |  |  | 
20 | Cc1c(OCCN2CCCC2)ccc2c(=O)cc(-c3ccccc3)oc12 | 42 | 2710 | 2040 |  |  |  |  | 
21 | Cc1c(OCCCN2CCC(O)CC2)ccc2c(=O)cc(-c3ccccc3)oc12 | 21.4 | 4120 | 2940 |  |  |  |  | 
22 | Cc1c(OCCCCCN2CCN(C)CC2)ccc2c(=O)cc(-c3ccccc3)oc12 | 39.9 | 4870 | 1870 |  |  |  |  | 
23 | Cc1c(OCCCCN2CCCCC2C)ccc2c(=O)cc(-c3ccccc3)oc12 (stereo unspecified) | 37.3 | > 100000 | 225 |  |  |  |  | 
24 | CCN(CC)CCCCOc1ccc2c(=O)cc(-c3ccccc3)oc2c1C | 39 | 4820 | 130 | 2 | 20 | Active | Active | Active
25 | Cc1c(OCCCCN(C)C)ccc2c(=O)cc(-c3ccccc3)oc12 | 34.3 | > 100000 | 328 |  |  |  |  | 
26 | Cc1c(OCCCCN2CCN(C)CC2)ccc2c(=O)cc(-c3ccccc3)oc12 | 31.1 | 5750 | 1660 |  |  |  |  | 
27 | Cc1c(OCCCN2CCCC2)ccc2c(=O)cc(-c3ccccc3)oc12 | 27.1 | 2780 | 952 |  |  |  |  | 
28 | Cc1c(OCCCCCN(C)C)ccc2c(=O)cc(-c3ccccc3)oc12 | 37.9 | 2540 | 210 |  |  |  |  | 
